The values that follow come from patent US20260015350A1, “AZAQUINAZOLINE PAN-KRAS INHIBITORS” (Mirati Therapeutics, Inc., priority 2022, published 2026).

The target in experiment [1] is T1, KRas^G12R (Homo sapiens, UniProt P01116, G12R).
T1 construct: Biotinylated KRas (corresponding to amino acids 1-169, produced at Accelegan Inc.); biotin (biotinylated); purchased Accelegan Inc
As to the kind of experiment: KRas binding assay (TR-FRET tracer displacement), KRas G12R. For orientation: Time-resolved FRET reads energy transfer from a long-lived donor to a nearby acceptor.

The test system of experiment [2] is KRas-mediated phosphorylation of ERK in H727 cells. In words: Inhibition of KRas-mediated phosphorylation of ERK (Cisbio HTRF pERK), H727 cells. Format: cell-based. The settings on record: Homo sapiens, NCI-H727, H727 cells; HTRF pERK. How it is done: (§1) Inhibition of KRas Phosphorylation of ERK (HTRF) by Exemplary Compounds of Formula (I) Cisbio HTRF Advanced PERK Assay Catalog #64[…] […] Add 10 mL of media to stop trypsinizing. Pipette the cells into a conical bottom 50 mL centrifuge tube and centrifuge 5 min×1000 rpm. […] Re-suspend the cell pellet in media, take a cell count, and then adjust the cell density using fresh media. […] Seed 6,000 cells into cell culture plate with 50 μL media. […] Use Tecan to complete the compound addition. Compounds start from 10 uM top, 3-fold dilution, and 10 doses. The final DMSO concentration is 0.8%. Dispensed 0.2 uM Trametinib as Min control. […] Incubate cell plate for 3 hrs in the incubator. […] Dilute 1 volume of 4× lysis buffer with 3 volumes of deionized water. […] Keep lysis buffer on the ice. […] At the end of the compound treatment, flick-off the media. […] Add 35 μL of lysis buffer per well using a Multidrop Combi. Then place on a plate agitator shaking at 300 rpm at 4° C. for 40 mins. […] Make up the HTRF antibody buffer. For each assay plate, mix 50 μL of d2-conjugate antibody with 950 μL of detection buffer. Similarly, mix 50 μL of Cryptate antibody with 950 μL of detection buffer. Then mix the two diluted antibodies together. […] Dispense 3.4 μL the antibody buffer to wells of an empty assay plate. Seal the plate and centrifuge plate 30 sec×1000 rpm. […] At the end of the 4° C. lysis, centrifuge the lysate plates 3 mins×1500 rpm. […] Use the Bravo to transfer 13.6 μL of lysate from cell culture plate to assay plate. Then incubate assay plate for 2 hrs at room temperature. 8. At the end of incubation, read plate on the Envision after centrifuging plate 30 sec×1000 rpm.

Experiment [3] deals with T2, KRas^G12D (Homo sapiens, UniProt P01116, G12D).
T2 construct: Biotinylated KRas (corresponding to amino acids 1-169, produced at Accelegan Inc.); biotin (biotinylated); purchased Accelegan Inc
In words: KRas binding assay (TR-FRET tracer displacement), KRas G12D.

In experiment [4] the test system is KRas-mediated phosphorylation of ERK in AsPC-1 cells. As to the kind of experiment: Inhibition of KRas-mediated phosphorylation of ERK (Cisbio HTRF pERK), AsPC-1 cells. In kind it is cell-based. To be noted: Homo sapiens, ASPC1, AsPC-1 cells; HTRF pERK. As to the method: as §1
The target in experiment [5] is T3, KRas^G12V (Homo sapiens, UniProt P01116, G12V).
T3 construct: Biotinylated KRas (corresponding to amino acids 1-169, produced at Accelegan Inc.); biotin (biotinylated); purchased Accelegan Inc
As to the kind of experiment: KRas binding assay (TR-FRET tracer displacement), KRas G12V.

Bounds are passed on as bounds.

T1 sequence (P01116 1-169 isoform P01116-2 G12R): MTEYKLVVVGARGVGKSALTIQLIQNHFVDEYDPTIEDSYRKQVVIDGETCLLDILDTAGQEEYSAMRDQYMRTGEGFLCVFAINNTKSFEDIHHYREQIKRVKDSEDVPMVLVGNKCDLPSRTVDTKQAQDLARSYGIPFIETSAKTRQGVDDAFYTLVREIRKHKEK
T2 sequence (P01116 1-169 isoform P01116-2 G12D): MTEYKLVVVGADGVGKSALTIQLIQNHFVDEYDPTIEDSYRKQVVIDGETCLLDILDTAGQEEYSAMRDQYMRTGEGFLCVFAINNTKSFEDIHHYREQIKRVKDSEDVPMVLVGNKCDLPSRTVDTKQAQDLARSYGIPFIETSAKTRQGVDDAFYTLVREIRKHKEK
T3 sequence (P01116 1-169 isoform P01116-2 G12V): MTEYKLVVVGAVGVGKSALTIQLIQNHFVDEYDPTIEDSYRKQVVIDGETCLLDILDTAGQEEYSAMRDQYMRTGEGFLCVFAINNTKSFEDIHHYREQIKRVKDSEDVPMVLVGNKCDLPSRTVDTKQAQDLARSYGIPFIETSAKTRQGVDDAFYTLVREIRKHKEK

As usually defined, the IC50 is the concentration that gives 50% inhibition. Read a low IC50 as greater potency. With `CCc1c(F)ccc2cc(O)cc(-c3ncc4c(N5C[C@@H]6[C@@H](CC(N)=O)NC(=O)[C@@H]6C5)nc(OC[C@@]56CCCN5C[C@H](F)C6)nc4c3F)c12` [Example 641, 2-((1R,3aS,6aR)-5-(7-(8-ethyl-7-fluoro-3-hydroxynaphthalen-1-yl)-8-fluoro-2-(((2R,7aS)-2-fluorotetrahydro-1H-pyrrolizin-7a(5H)-yl)methoxy)pyrido[4,3-d]pyrimidin-4-yl)-3-oxooctahydropyrrolo[3,4-c]pyrrol-1-yl)acetamide], the IC50 in experiment [1] is 540 nM; in experiment [2], above 10000 nM; in experiment [3], 3120 nM; in experiment [4] it was above 10000 nM; in experiment [5], 632 nM.

On to `CCc1c(F)ccc2cc(O)cc(-c3ncc4c(N5CCCCCC(P(C)(C)=O)C5)nc(OC[C@@]56CCCN5C[C@H](F)C6)nc4c3F)c12` (stereo partly drawn) [Example 864, (1-(7-(8-ethyl-7-fluoro-3-hydroxynaphthalen-1-yl)-8-fluoro-2-(((2R,7aS)-2-fluorotetrahydro-1H-pyrrolizin-7a(5H)-yl)methoxy)pyrido[4,3-d]pyrimidin-4-yl)azocan-3-yl)dimethylphosphine oxide], for which the concentration for half-maximal inhibition (IC50) in experiment [1] was 1790 nM; in experiment [2] it was above 10000 nM; in experiment [3], 2130 nM; in experiment [4], above 10000 nM; in experiment [5], 946 nM.

`CCc1c(F)ccc2cc(O)cc(-c3ncc4c(NCc5cn(C(=O)N(C)C)nc5NC(C)=O)nc(OC[C@@]56CCCN5C[C@H](F)C6)nc4c3F)c12` [Example 675, 3-acetamido-4-(((7-(8-ethyl-7-fluoro-3-hydroxynaphthalen-1-yl)-8-fluoro-2-(((2R,7aS)-2-fluorohexahydro-1H-pyrrolizin-7a-yl)methoxy)pyrido[4,3-d]pyrimidin-4-yl)amino)methyl)-N,N-dimethyl-1H-pyrazole-1-carboxamide]: the IC50 was below 2 nM in experiment [1]; 2040 nM in experiment [2]; 32 nM in experiment [3]; 9490 nM in experiment [4]; 3 nM in experiment [5].

In the case of `CCc1c(F)ccc2cc(O)cc(-c3ncc4c(N5CCN6C[C@@H](O)C[C@H]6C5)nc(OC[C@@]56CCCN5C[C@H](F)C6)nc4c3F)c12` [Example 567, (7S,8aS)-2-(7-(8-ethyl-7-fluoro-3-hydroxynaphthalen-1-yl)-8-fluoro-2-(((2R,7aS)-2-fluorohexahydro-1H-pyrrolizin-7a-yl)methoxy)pyrido[4,3-d]pyrimidin-4-yl) octahydropyrrolo[1,2-a]pyrazin-7-ol], the IC50 in experiment [1] was 1460 nM; in experiment [2], above 10000 nM; in experiment [3], 682 nM; in experiment [4] it was above 10000 nM; in experiment [5], 2430 nM.

As to `CCc1c(F)ccc2cc(O)cc(-c3ncc4c(N5CCOCC(P(C)(C)=O)C5)nc(OC[C@@]56CCCN5C[C@H](F)C6)nc4c3F)c12` (stereo partly drawn) [Example 629, (4-(7-(8-ethyl-7-fluoro-3-hydroxynaphthalen-1-yl)-8-fluoro-2-(((2R,7aS)-2-fluorohexahydro-1H-pyrrolizin-7a-yl)methoxy)pyrido[4,3-d]pyrimidin-4-yl)-1,4-oxazepan-6-yl)dimethylphosphine oxide], the half-inhibitory concentration (IC50) in experiment [1] was 37 nM; in experiment [2] it was above 10000 nM; in experiment [3] it was 65 nM; in experiment [4], above 10000 nM; in experiment [5], 15 nM.

As for `CN(C)C(=O)n1cc(CNc2nc(OC[C@@]34CCCN3C[C@H](F)C4)nc3c(F)c(-c4cc(O)cc5ccc(F)c(Cl)c45)ncc23)c(NC(=O)[C@H]2C[C@H](O)C2)n1` [Example 775, 4-(((7-(8-chloro-7-fluoro-3-hydroxynaphthalen-1-yl)-8-fluoro-2-(((2R,7aS)-2-fluorohexahydro-1H-pyrrolizin-7a-yl)methoxy)pyrido[4,3-d]pyrimidin-4-yl)amino)methyl)-3-((1r,3S)-3-hydroxycyclobutanecarboxamido)-N,N-dimethyl-1H-pyrazole-1-carboxamide], the 50% inhibitory concentration (IC50) in experiment [1] is 3 nM; in experiment [2], above 10000 nM; in experiment [3] it was 23 nM; in experiment [4], above 10000 nM; in experiment [5], 4 nM.

`CCc1c(F)ccc2cc(O)cc(-c3ncc4c(SCc5cc(C(=O)N(C)C)nn5C)nc(OC[C@@]56CCCN5C[C@H](F)C6)nc4c3F)c12` [Example 653, 5-(((7-(8-ethyl-7-fluoro-3-hydroxynaphthalen-1-yl)-8-fluoro-2-(((2R,7aS)-2-fluorohexahydro-1H-pyrrolizin-7a-yl)methoxy)pyrido[4,3-d]pyrimidin-4-yl)thio)methyl)-N,N,1-trimethyl-1H-pyrazole-3-carboxamide]: the 50% inhibitory concentration (IC50) in experiment [1] is 16 nM; in experiment [2], above 10000 nM; in experiment [3], 123 nM; in experiment [4] it was above 10000 nM; in experiment [5], 20 nM.

With `CCc1c(F)ccc2cc(O)cc(-c3ncc4c(N5C6CNC(=O)CC5COC6)nc(OC[C@@]56CCCN5C[C@H](F)C6)nc4c3F)c12` (stereo partly drawn) [Example 599, 10-(7-(8-ethyl-7-fluoro-3-hydroxynaphthalen-1-yl)-8-fluoro-2-(((2R,7aS)-2-fluorohexahydro-1H-pyrrolizin-7a-yl)methoxy)pyrido[4,3-d]pyrimidin-4-yl)-8-oxa-3,10-diazabicyclo[4.3.1]decan-4-one], the IC50 in experiment [1] was 23 nM; in experiment [2] it was above 10000 nM; in experiment [3], 2120 nM; in experiment [4], above 10000 nM; in experiment [5], 85 nM.

`CCc1c(F)ccc2cc(O)cc(-c3ncc4c(N5CCC(Cc6cncn6C)C5)nc(OC[C@@]56CCCN5C[C@H](F)C6)nc4c3F)c12` (stereo partly drawn) [Example 829, 5-ethyl-6-fluoro-4-(8-fluoro-2-(((2R,7aS)-2-fluorotetrahydro-1H-pyrrolizin-7a(5H)-yl)methoxy)-4-(3-((1-methyl-1H-imidazol-5-yl)methyl)pyrrolidin-1-yl)pyrido[4,3-d]pyrimidin-7-yl)naphthalen-2-ol]: the IC50 is 460 nM in experiment [1]; above 10000 nM in experiment [2]; 939 nM in experiment [3]; above 10000 nM in experiment [4]; 195 nM in experiment [5].

With `CCc1c(F)ccc2cc(O)cc(-c3ncc4c(NCc5cc(C(=O)N(C)C)nn5C5CS(=O)(=O)C5)nc(OC[C@@]56CCCN5C[C@H](F)C6)nc4c3F)c12` [Example 691, 1-(1,1-dioxidothietan-3-yl)-5-(((7-(8-ethyl-7-fluoro-3-hydroxynaphthalen-1-yl)-8-fluoro-2-(((2R,7aS)-2-fluorohexahydro-1H-pyrrolizin-7a-yl)methoxy)pyrido[4,3-d]pyrimidin-4-yl)amino)methyl)-N,N-dimethyl-1H-pyrazole-3-carboxamide], the IC50 was 6 nM in experiment [1]; above 10000 nM in experiment [2]; 5 nM in experiment [3]; above 10000 nM in experiment [4]; 2 nM in experiment [5].

Turning to `CCc1c(F)ccc2cc(O)cc(-c3ncc4c(N5CCCCC(P(C)(C)=O)C5)nc(OC[C@@]56CCCN5C[C@H](F)C6)nc4c3F)c12` (stereo partly drawn) [Example 627, (1-(7-(8-ethyl-7-fluoro-3-hydroxynaphthalen-1-yl)-8-fluoro-2-(((2R,7aS)-2-fluorohexahydro-1H-pyrrolizin-7a-yl)methoxy)pyrido[4,3-d]pyrimidin-4-yl)azepan-3-yl)dimethylphosphine oxide], the IC50 was 27 nM in experiment [1]; 4560 nM in experiment [2]; 35 nM in experiment [3]; above 10000 nM in experiment [4]; 12 nM in experiment [5].
